IC50 data for 30 compounds are collected here from patent publication US20230278981A1, “DICHLOROPHENOL HSD17B13 INHIBITORS AND USES THEREOF” (INIPHARM, INC., priority 2020, published 2023).

Some results are limits rather than exact numbers.

The assay deals with HSD17B13 (Homo sapiens (Human), UniProt Q7Z5P4). The assay can be described thus: LC/MS estrone detection assay: conversion of estradiol to estrone by HSD17B13. Type of assay: biochemical. The note with it: 4 μM estradiol, 6 mM NAD+, 30 nM HSD17B13 enzyme (E. coli expressed His-tagged), 2 hours at 26.5° C. On the procedure:
The liquid chromatography/mass spectrometry (LC/MS) estrone detection assay monitors the conversion of estradiol to estrone by HSD17B13. This assay was undertaken in a 96wp format (Eppendorf deep well Plate 96/500) in an 80 μl reaction volume containing: 4 μM of Estradiol (E2; Cayman; Ser. No. 10/006,315), 6 mM NAD+(Sigma; #N0623) and 30 nM HSD17B13 enzyme (in-house; E. coli expressed His-tagged, purified, soluble protein) in a reaction containing […] potassium phosphate buffer pH 7.4, with 0.5% vehicle (DMSO). Reactions were incubated for 2 hours at 26.5° C., and estradiol (E2) conversion to estrone (E1) was quantitated by LC-MS/MS based analyte detection for both E2 and E1 using LCMS grade reagents.
Reactions were terminated by the addition of two volumes of acetonitrile (MeCN; LCMS grade; CAS #75/05/8) containing deuterated (D4)-E1 used as internal standard (Clear Synth; #CS-T-54273; 500 ng/mL final concentration). Samples were applied to pre-prepared Bond Elut-C18 extraction cartridges (3 mL; Agilent; Ser. No. 12/102,028), washed and eluted in MeCN. Eluates were dried under nitrogen and re-suspended in 60% methanol (LCMS grade methanol; CAS #67/56/1) before submission for analysis. Aqueous linearity for E2 and E1 were included for quantification.
Analysis of samples was undertaken on a XBridge BEH C18 column (Waters; #186003033) using 0.1% Diethyl Amine in MeCN (mobile phase A; DEA CAS #109-89-7) and 0.1% Diethyl Amine in milli-Q water (mobile phase B) in a 3 min gradient allowing 25% B. Analytes were detected in negative mode using MRM analysis, with E2 having a RT of 1.85 min and E1 having a RT of 2 min. Activity of the enzyme, in the absence of NAD^+, was used to evaluate specificity of conversion. Enzyme activity in the presence of test samples was expressed as a percentage of the uninhibited enzyme activity, and plotted versus inhibitor concentration. Non-linear regression was performed using a four-parameter logistic model and GraphPad Prism software (GraphPad Software, La Jolla, Calif.). All assessments were undertaken in duplicate evaluations and pooled during extraction process and subsequently injected as duplicates for LC-MS/MS analysis.

HSD17B13, sequence (Q7Z5P4 20-300): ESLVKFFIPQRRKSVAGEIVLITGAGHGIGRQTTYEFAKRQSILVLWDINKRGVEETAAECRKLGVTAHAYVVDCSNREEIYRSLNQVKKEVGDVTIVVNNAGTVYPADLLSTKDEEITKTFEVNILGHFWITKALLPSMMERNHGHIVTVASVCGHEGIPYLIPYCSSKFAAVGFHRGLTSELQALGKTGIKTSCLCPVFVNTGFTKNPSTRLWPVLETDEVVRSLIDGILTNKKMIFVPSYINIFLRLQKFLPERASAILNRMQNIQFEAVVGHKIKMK

Regarding `O=C(Nc1ncsc1C(=O)NCc1ccccc1F)c1cc(Cl)c(O)c(Cl)c1` [Example 24, 4-(3,5-dichloro-4-hydroxybenzamido)-N-(2-fluorobenzyl)thiazole-5-carboxamide], the IC50 fell in the range of 1000 to 10000 nM. As for `O=C(Nc1ncsc1C(=O)NCCc1ccccc1C(F)(F)F)c1cc(Cl)c(O)c(Cl)c1` [Example 25, 4-(3,5-dichloro-4-hydroxybenzamido)-N-(2-(trifluoromethyl)phenethyl) thiazole-5-carboxamide], the figure is 100 to 500 nM; as for `O=C(Nc1ncsc1C(=O)NCc1ccccc1C(F)(F)F)c1cc(Cl)c(O)c(Cl)c1` [Example 26, 4-(3,5-dichloro-4-hydroxybenzamido)-N-(2-(trifluoromethyl)benzyl)thiazole-5-carboxamide], 100 to 500 nM; as for `O=C(Nc1ncsc1C(=O)NCc1ccccc1OC(F)(F)F)c1cc(Cl)c(O)c(Cl)c1` [Example 27, 4-(3,5-dichloro-4-hydroxybenzamido)-N-(2-(trifluoromethoxy)benzyl)thiazole-5-carboxamide], 100 to 500 nM.

For `O=C(Nc1ncsc1C(=O)NCc1ccc(F)cc1F)c1cc(Cl)c(O)c(Cl)c1` [Example 28, 4-(3,5-dichloro-4-hydroxybenzamido)-N-(2,4-difluorobenzyl)thiazole-5-carboxamide], the IC50 lay in the range of 1000 to 10000 nM. The compound `O=C(Nc1ncsc1C(=O)NC1(c2ccc(F)cc2)CC1)c1cc(Cl)c(O)c(Cl)c1` [Example 29, 4-(3,5-dichloro-4-hydroxybenzamido)-N-(1-(4-fluorophenyl)cyclopropyl)thiazole-5-carboxamide] returned an IC50 of 100 to 500 nM. With `O=C(Nc1ncsc1C(=O)NCC1CCC(F)(F)CC1)c1cc(Cl)c(O)c(Cl)c1` [Example 30, 4-(3,5-dichloro-4-hydroxybenzamido)-N-((4,4-difluorocyclohexyl)methyl) thiazole-5-carboxamide], the IC50 was in the range of 500 to 1000 nM. The same measure for `Cc1nsc(NC(=O)c2cc(Cl)c(O)c(Cl)c2)c1C(=O)NCc1ccccc1F` [Example 31, 5-(3,5-dichloro-4-hydroxybenzamido)-N-(2-fluorobenzyl)-3-methylisothiazole-4-carboxamide]: 100 to 500 nM; for `O=C(Nc1scnc1C(=O)NCc1ccccc1OC(F)(F)F)c1cc(Cl)c(O)c(Cl)c1` [Example 32, 5-(3,5-dichloro-4-hydroxybenzamido)-N-(2-(trifluoromethoxy)benzyl)thiazole-4-carboxamide]: no more than 100 nM; for `O=C(Nc1scnc1C(=O)NCc1ccccc1F)c1cc(Cl)c(O)c(Cl)c1` [Example 33, 5-(3,5-dichloro-4-hydroxybenzamido)-N-(2-fluorobenzyl)thiazole-4-carboxamide]: 100 to 500 nM. As for `O=C(Nc1scnc1C(=O)NCc1cccc(F)c1)c1cc(Cl)c(O)c(Cl)c1` [Example 34, 5-(3,5-dichloro-4-hydroxybenzamido)-N-(3-fluorobenzyl)thiazole-4-carboxamide], the figure is no more than 100 nM; as for `COc1ccccc1CCNC(=O)c1sccc1NC(=O)c1cc(Cl)c(O)c(Cl)c1` [Example 35, 3-(3,5-dichloro-4-hydroxybenzamido)-N-(2-methoxyphenethyl)thiophene-2-carboxamide], no more than 100 nM; as for `COc1ccccc1CCn1cnc2cccc(NC(=O)c3cc(Cl)c(O)c(Cl)c3)c2c1=O` [Example 36, 3,5-dichloro-4-hydroxy-N-(3-(2-methoxyphenethyl)-4-oxo-3,4-dihydroquinazolin-5-yl)benzamide], 100 to 500 nM. As for `O=C(Nc1cc(Cl)sc1C(=O)NCc1ccccc1OC(F)(F)F)c1cc(Cl)c(O)c(Cl)c1` [Example 37, 5-chloro-3-(3,5-dichloro-4-hydroxybenzamido)-N-(2-(trifluoromethoxy)benzyl) thiophene-2-carboxamide], the figure is no more than 100 nM; as for `O=C(Nc1sc(Cl)cc1C(=O)NCCc1ccccc1OC(F)(F)F)c1cc(Cl)c(O)c(Cl)c1` [Example 38, 5-chloro-2-(3,5-dichloro-4-hydroxybenzamido)-N-(2-(trifluoromethoxy)phenethyl) thiophene-3-carboxamide], 100 to 500 nM; as for `O=C(Nc1cccc2ncn(Cc3nncs3)c(=O)c12)c1cc(Cl)c(O)c(Cl)c1` [Example 39, N-(3-((1,3,4-thiadiazol-2-yl)methyl)-4-oxo-3,4-dihydroquinazolin-5-yl)-3,5-dichloro-4-hydroxybenzamide], 1000 to 10000 nM. For `O=C(Nc1cccc2ncn(Cc3cccc(C(F)(F)F)c3)c(=O)c12)c1cc(Cl)c(O)c(Cl)n1` [Example 40, 4,6-dichloro-5-hydroxy-N-(4-oxo-3-(3-(trifluoromethyl)benzyl)-3,4-dihydroquinazolin-5-yl)picolinamide], the IC50 is 100 to 500 nM. The compound `C[C@@H](c1cccc(F)c1)n1cnc2cccc(NC(=O)c3cc(Cl)c(O)c(Cl)n3)c2c1=O` [Example 41, 4,6-dichloro-N-{3-[(1S)-1-(3-fluorophenyl)ethyl]-4-oxo-3,4-dihydroquinazolin-5-yl}-5-hydroxypyridine-2-carboxamide] came in with an IC50 of no more than 100 nM.

Regarding `O=C(Nc1cccc2ncn(Cc3ccc(F)cc3)c(=O)c12)c1cc(Cl)c(O)c(Cl)n1` [Example 42, 4,6-dichloro-N-{3-[(4-fluorophenyl)methyl]-4-oxo-3,4-dihydroquinazolin-5-yl}-5-hydroxypyridine-2-carboxamide], the IC50 was 100 to 500 nM. In turn, `O=C(Nc1cccc2ncn(Cc3ccccc3C(F)(F)F)c(=O)c12)c1cc(Cl)c(O)c(Cl)n1` [Example 43, 4,6-dichloro-5-hydroxy-N-(4-oxo-3-(2-(trifluoromethyl)benzyl)-3,4-dihydroquinazolin-5-yl)picolinamide] gave an IC50 of no more than 100 nM. As for `O=C(Nc1cccc2ncn(Cc3ccccc3F)c(=O)c12)c1cc(Cl)c(O)c(Cl)n1` [Example 44, 4,6-dichloro-N-(3-(2-fluorobenzyl)-4-oxo-3,4-dihydroquinazolin-5-yl)-5-hydroxypicolinamide], the figure is no more than 100 nM. `CN1CCN(c2ccc(Cn3cnc4cccc(NC(=O)c5cc(Cl)c(O)c(Cl)c5)c4c3=O)cc2)CC1` [Example 45, 3,5-dichloro-4-hydroxy-N-(3-(4-(4-methylpiperazin-1-yl)benzyl)-4-oxo-3,4-dihydroquinazolin-5-yl)benzamide] gave an IC50 of 1000 to 10000 nM. As for `C[C@H](c1cccc(F)c1)n1cnc2cccc(NC(=O)c3cc(Cl)c(O)c(Cl)c3)c2c1=O` [Example 47, (R)-3,5-dichloro-N-(3-(1-(3-fluorophenyl)ethyl)-4-oxo-3,4-dihydroquinazolin-5-yl)-4-hydroxybenzamide], the figure is no more than 100 nM; as for `N#Cc1cccc(Cn2cnc3cccc(NC(=O)c4cc(Cl)c(O)c(Cl)c4)c3c2=O)c1` [Example 48, 3,5-dichloro-N-(3-(3-cyanobenzyl)-4-oxo-3,4-dihydroquinazolin-5-yl)-4-hydroxybenzamide], 100 to 500 nM. The compound `O=C(Nc1cccc2ncn(Cc3cccc(OC(F)(F)F)c3)c(=O)c12)c1cc(Cl)c(O)c(Cl)n1` [Example 49, 4,6-dichloro-5-hydroxy-N-(4-oxo-3-(3-(trifluoromethoxy)benzyl)-3,4-dihydroquinazolin-5-yl)picolinamide] showed an IC50 of 100 to 500 nM. The compound `O=C(Nc1cccc2ncn(Cc3ccc(OC(F)(F)F)cc3)c(=O)c12)c1cc(Cl)c(O)c(Cl)n1` [Example 50, 4,6-dichloro-5-hydroxy-N-(4-oxo-3-(4-(trifluoromethoxy)benzyl)-3,4-dihydroquinazolin-5-yl)picolinamide] showed an IC50 of 100 to 500 nM. `CS(=O)(=O)c1ccccc1Cn1cnc2cccc(NC(=O)c3cc(Cl)c(O)c(Cl)c3)c2c1=O` [Example 51, 3,5-dichloro-4-hydroxy-N-(3-(2-(methylsulfonyl)benzyl)-4-oxo-3,4-dihydroquinazolin-5-yl)benzamide.]: the IC50 lay in the range of 100 to 500 nM. The same measure for `CC(C)(C)n1ccc(Cn2cnc3cccc(NC(=O)c4cc(Cl)c(O)c(Cl)c4)c3c2=O)n1` [Example 52, N-(3-((1-(tert-butyl)-1H-pyrazol-3-yl)methyl)-4-oxo-3,4-dihydroquinazolin-5-yl)-3,5-dichloro-4-hydroxybenzamide]: 500 to 1000 nM; for `N#Cc1ccccc1Cn1cnc2cccc(NC(=O)c3cc(Cl)c(O)c(Cl)c3)c2c1=O` [Example 53, 3,5-dichloro-N-(3-(2-cyanobenzyl)-4-oxo-3,4-dihydroquinazolin-5-yl)-4-hydroxybenzamide]: no more than 100 nM. The same measure for `O=C(Nc1cccc2ncnc(NCc3ccccc3OC(F)F)c12)c1cc(Cl)c(O)c(Cl)c1` [Example 54, 3,5-dichloro-N-[4-({[2-(difluoromethoxy)phenyl]methyl}amino)quinazolin-5-yl]-4-hydroxybenzamide]: 1000 to 10000 nM.

For orientation: IC50 means the midpoint of a concentration-inhibition curve. Higher therefore signals weaker potency.
